Test [1] concerns Plasmodium falciparum. Kind of test: Antiplasmodial activity after 48 hrs against Plasmodium falciparum K1 in human erythrocytes. It counts as functional, organism-based.
Test [2] has as its system L6. The experiment in a line: Cytotoxicity against rat L6 cells after 72 hrs. The class given is cell-based.
Where [3] appears, read: Plasmodium falciparum, K1, 48 h.

Counter-ions that a name gives are not always drawn.

A word on the IC50: it is the concentration that gives 50% inhibition.

As for `COC1=C(CC=C(C)C)C(=O)[C@@]2(C(=O)C(C)C)C(=O)[C@]1(CC=C(C)C)C[C@H](CC=C(C)C)[C@@]2(C)CCC=C(C)C`, the IC50 in test [1] (setting [3]) worked out at 7.8 µM.

Compound `CC(C)=CCC[C@]1(C)[C@@H](CC=C(C)C)C[C@]2(CC=C(C)C)C(=O)C(C)(CC=C(C)C)C(=O)[C@@]1(C(=O)C(C)C)C2=O` (stereo not given in full) displayed an IC50 in test [1] (setting [3]) of over 27 µM.

With `CC(C)=CCC[C@]1(C)[C@@H](CC=C(C)C)C[C@]2(CC=C(C)C)C(=O)[C@@](O)(CC=C(C)C)C(=O)[C@@]1(C(=O)C(C)C)C2=O`, the concentration for half-maximal inhibition (IC50) in test [1] (setting [3]) came out at 0.6 µM; in test [2] (Rattus norvegicus, L6, 72 h), 19.7 µM.

In test [1] (setting [3]), `CC(C)=CCC[C@]1(C)[C@@H](CC=C(C)C)C[C@]2(CC=C(C)C)C(=O)C(Cl)(CC=C(C)C)C(=O)[C@@]1(C(=O)C(C)C)C2=O` (stereo not given in full) displayed an IC50 of 6.7 µM.

Take `CC(C)=C/C=C1/OC(=O)[C@@]2(CC=C(C)C)C[C@H](CC=C(C)C)[C@@](C)(CCC=C(C)C)[C@H](C(=O)C(C)C)C(=O)[C@@]12O`: the IC50 in test [1] (setting [3]) is 3.8 µM; in test [2] (Rattus norvegicus, L6, 72 h), 36 µM.

In turn, `CC(=O)C1=C(O)C=C2Oc3c(C(C)=O)c(O)c(C)c(O)c3C2(C)C1=O` (stereo not given) showed an IC50 in test [1] (setting [3]) of 16.1 µM.

`CC(C)=CCC[C@]1(C)[C@@H](CC=C(C)C)C[C@]2(CC=C(C)C)C(=O)C(CC=C(C)C)=C(O)[C@@]1(C(=O)C(C)C)C2=O` [listing 1 of 2 here]: the IC50 in test [1] (setting [3]) was found to be 1.5 µM; in test [2] (Rattus norvegicus, L6, 72 h) it was 2.21 µM.

On to `CC(C)=CCC[C@]1(C)[C@@H](CC=C(C)C)C[C@]2(CC=C(C)C)C(=O)C(CC=C(C)C)=C(O)[C@@]1(C(=O)C(C)C)C2=O` [listing 2 of 2 here], for which the IC50 worked out at 2.1 µM in test [1] and 3.29 µM in test [2] (l6).

The compound `CC(=O)C1=C(O)C=C2Oc3c(C(C)=O)c(O)c(C)c(O)c3[C@@]2(C)C1=O` [(+)-USNIC ACID] had a half-inhibitory concentration (IC50) in test [1] (setting [3]) of 15.3 µM.

For `CC(C)=CCC[C@]1(C)[C@@H](CC=C(C)C)C[C@@]2(CC=C(C)C)C(=O)[C@]1(C(=O)C(C)C)C(=O)C1=C2OC(C)(C)C=C1` [DEHYDROHYPERFORIN], the IC50 in test [1] (setting [3]) amounted to 8.6 µM.

As to `CC(C)=CCC[C@]1(C)[C@@H](CC=C(C)C)C[C@]23CC(C(C)(C)O)OC2=C(CC=C(C)C)C(=O)[C@@]1(C(=O)C(C)C)C3=O` (stereo not given in full) [FUROHYPERFORIN], the half-maximal inhibitory concentration (IC50) in test [1] (setting [3]) is 1.7 µM; in test [2] (Rattus norvegicus, L6, 72 h), 16.1 µM.

Turning to `CC(C)=CCC[C@]1(C)[C@@H](CC=C(C)C)C[C@]2(CC=C(C)C)C(=O)[C@@]3(CC=C(C)C)O[C@@]2(O)[C@]1(C(=O)C(C)C)C3=O` [HYPERFORINHEMIACETAL], the IC50 in test [1] (setting [3]) amounted to 2 µM; in test [2] (Rattus norvegicus, L6, 72 h), 16.1 µM.

Take `CC(C)=CCC[C@]1(C)[C@@H](CC=C(C)C)C[C@@]2(CC=C(C)C)C(=O)[C@]1(C(=O)C(C)C)C(=O)C(CC=C(C)C)=C2OC(=O)c1cccnc1` [HYPERFORINNICOTINATE]: the IC50 stood at 4.8 µM in test [1] (setting [3]) and 23.9 µM in test [2] (Rattus norvegicus, L6, 72 h).

In test [1] (setting [3]), `COc1cc(C(=O)OC2=C(CC=C(C)C)C(=O)[C@@]3(C(=O)C(C)C)C(=O)[C@]2(CC=C(C)C)C[C@H](CC=C(C)C)[C@@]3(C)CCC=C(C)C)cc(OC)c1OC` [HYPERFORINTRIMETHOXYBENZOATE] yielded an IC50 of over 27 µM.

Take `CC(C)CCC[C@]1(C)[C@@H](CCC(C)C)C[C@@]2(CCC(C)C)C(=O)[C@]1(C(=O)C(C)C)C(=O)C(CCC(C)C)=C2O` [OCTAHYDROHYPERFORIN DICYCLOHEXYLAMMONIUM SALT]: the IC50 was 1.4 µM in test [1] and 3.12 µM in test [2] (l6).

As to `CC(C)CCC[C@]1(C)[C@@H](CCC(C)C)C[C@@]2(CCC(C)C)C(=O)[C@]1(C(=O)C(C)C)C(=O)C(CCC(C)C)=C2O` [OCTAHYDROHYPERFORIN], the IC50 in test [1] (setting [3]) was determined as 2.7 µM; in test [2] (Rattus norvegicus, L6, 72 h), 2.12 µM.

For the origin of these results see ChEMBL document CHEMBL1144599, “In vitro antimalarial activity of hyperforin, a prenylated acylphloroglucinol. A structure-activity study” (Bioorg Med Chem Lett, 2007).
